In PMC8138313, “Identification, Selection and Immune Assessment of Liver Stage CD8 T Cell Epitopes From Plasmodium falciparum” (Frontiers in Immunology, 2021):
Where a SMILES comes first, the peptide text is derived from it.

These compounds were tested against HLA A*0301 (Homo sapiens, UniProt P04439) (assay: HLA class I binding assay (cell-free competition, fluorescence polarization)).

Going from `CC(C)C[C@H](NC(=O)[C@H](C)N)C(=O)N[C@@H](CC(N)=O)C(=O)N[C@@H](CC(C)C)C(=O)N[C@@H](Cc1ccccc1)C(=O)N[C@@H](Cc1ccccc1)C(=O)N[C@@H](CCC(N)=O)C(=O)N[C@@H](CC(N)=O)C(=O)N[C@@H](CCCCN)C(=O)O` (H-ALNLFFQNK-OH) to `CC(C)C[C@H](NC(=O)[C@H](CC(N)=O)NC(=O)[C@H](CC(C)C)NC(=O)[C@@H](N)CC(N)=O)C(=O)N[C@@H](CS)C(=O)NCC(=O)N[C@@H](CCCCN)C(=O)N[C@@H](Cc1ccc(O)cc1)C(=O)N[C@H](C(=O)N[C@@H](CCCCN)C(=O)O)[C@@H](C)O` (H-NLNLCGKYTK-OH; N-terminus assumed), the IC50 rises from 1.14 µM to over 1000 µM.

First: CC(C)C[C@H](NC(=O)[C@H](Cc1ccccc1)NC(=O)[C@H](CO)NC(=O)[C@H](Cc1ccccc1)NC(=O)[C@H](CS)NC(=O)[C@@H](N)Cc1ccccc1)C(=O)N[C@@H](CCCCN)C(=O)N[C@@H](CO)C(=O)N[C@@H](CO)C(=O)N[C@@H](CCCCN)C(=O)O (H-FCFSFLKSSK-OH)
Second: CC(C)C[C@H](NC(=O)[C@H](Cc1ccccc1)NC(=O)[C@@H](NC(=O)[C@H](CCCCN)NC(=O)[C@H](CCCCN)NC(=O)[C@H](CO)NC(=O)[C@@H](N)CCCNC(=N)N)[C@@H](C)O)C(=O)N[C@H](C(=O)N[C@@H](CCCCN)C(=O)O)C(C)C (H-RSKKTFLVK-OH)
The IC50 of the first is 23-fold higher: 9.21 µM for the first, 0.409 µM for the second.

Going from `CSCC[C@H](NC(=O)[C@@H](NC(=O)[C@H](CC(=O)O)NC(=O)[C@H](Cc1c[nH]cn1)NC(=O)[C@@H]1CCCN1C(=O)[C@H](CO)NC(=O)[C@H](CC(C)C)NC(=O)CN)[C@@H](C)O)C(=O)N[C@@H](CCC(N)=O)C(=O)N[C@@H](CCCCN)C(=O)O` (H-GLSPHDTMQK-OH) to `CSCC[C@H](N)C(=O)N[C@@H](CC(=O)O)C(=O)N[C@@H](Cc1ccccc1)C(=O)N1CCC[C@H]1C(=O)N[C@@H](CCCCN)C(=O)N[C@@H](CC(C)C)C(=O)N[C@@H](CC(C)C)C(=O)N[C@@H](CC(N)=O)C(=O)N[C@@H](CCCCN)C(=O)O` (H-MDFPKLLNK-OH), the IC50 rises from 1.1 µM to 2.08 µM (1.9-fold).

Compared with `CC[C@H](C)[C@H](N)C(=O)N[C@@H](CC(C)C)C(=O)N[C@H](C(=O)N[C@@H](CO)C(=O)N[C@@H](CCCNC(=N)N)C(=O)N[C@@H](CC(C)C)C(=O)N[C@H](C(=O)N[C@@H](CC(C)C)C(=O)N[C@@H](CCCCN)C(=O)O)[C@@H](C)O)[C@@H](C)CC` (H-ILISRLTLK-OH), `CC[C@H](C)[C@H](NC(=O)[C@H](CCSC)NC(=O)[C@H](CCCCN)NC(=O)[C@H](CCSC)NC(=O)[C@@H](NC(=O)[C@@H](N)CC(C)C)[C@@H](C)O)C(=O)N[C@@H](CC(N)=O)C(=O)N[C@@H](CC(N)=O)C(=O)N[C@@H](CCCCN)C(=O)O` (H-LTMKMINNK-OH) is 2.1-fold higher in IC50: 0.22 µM for the first, 0.472 µM for the second. The first is the more potent here.

`CC[C@H](C)[C@H](NC(=O)[C@H](Cc1ccccc1)NC(=O)[C@H](CO)NC(=O)[C@H](CO)NC(=O)[C@@H](NC(=O)[C@@H](N)CCCCN)[C@@H](C)CC)C(=O)N[C@@H](CC(N)=O)C(=O)N[C@@H](CCC(N)=O)C(=O)N[C@@H](CCCNC(=N)N)C(=O)N[C@@H](CCCCN)C(=O)O` (H-KISSFINQRK-OH) and `CC[C@H](C)[C@H](NC(=O)[C@H](CO)NC(=O)[C@H](CCCNC(=N)N)NC(=O)[C@H](CC(N)=O)NC(=O)[C@H](CC(N)=O)NC(=O)[C@H](CC(C)C)NC(=O)[C@@H](N)CCCNC(=N)N)C(=O)N[C@@H](Cc1ccc(O)cc1)C(=O)N[C@@H](CCCCN)C(=O)O` (H-RLNNRSIYK-OH) are within 1.5-fold of each other in IC50: 0.316 µM for the first, 0.224 µM for the second.

Going from `CC(C)C[C@H](NC(=O)[C@H](CC(=O)O)NC(=O)[C@H](CC(C)C)NC(=O)[C@H](CO)NC(=O)[C@@H]1CCCN1C(=O)[C@H](CCCCN)NC(=O)[C@H](CC(N)=O)NC(=O)[C@H](CC(C)C)NC(=O)[C@H](CC(C)C)NC(=O)[C@@H](N)CCCCN)C(=O)O` (H-KLLNKPSLDL-OH) to `CC[C@H](C)[C@H](NC(=O)[C@@H]1CCCN1C(=O)[C@H](Cc1ccc(O)cc1)NC(=O)[C@H](CC(=O)O)NC(=O)[C@H](Cc1ccccc1)NC(=O)[C@@H](NC(=O)[C@@H](N)CCC(N)=O)C(C)C)C(=O)N[C@@H](CCC(=O)O)C(=O)N[C@@H](CCCCN)C(=O)O` (H-QVFDYPIEK-OH), the IC50 falls from 2.36 µM to 1.57 µM (1.5-fold).

Compared with `CSCC[C@H](NC(=O)[C@H](CC(N)=O)NC(=O)[C@H](Cc1ccc(O)cc1)NC(=O)[C@H](CC(N)=O)NC(=O)[C@H](CC(=O)O)NC(=O)[C@H](Cc1ccc(O)cc1)NC(=O)[C@H](CC(N)=O)NC(=O)[C@@H](N)CCCCN)C(=O)N[C@@H](CCCCN)C(=O)O` (H-KNYDNYNMK-OH), `CSCC[C@H](NC(=O)[C@H](CC(N)=O)NC(=O)[C@H](CCC(N)=O)NC(=O)[C@H](CC(N)=O)NC(=O)[C@H](C)NC(=O)[C@H](CCSC)NC(=O)[C@@H](N)[C@@H](C)O)C(=O)N[C@@H](CC(N)=O)C(=O)N[C@@H](Cc1ccc(O)cc1)C(=O)N[C@@H](CCCCN)C(=O)O` (H-TMANQNMNYK-OH) is 12-fold lower in IC50: 2.51 µM for the first, 0.209 µM for the second.

Compared with `CC[C@H](C)[C@H](NC(=O)[C@@H](N)CCCNC(=N)N)C(=O)N[C@@H](CO)C(=O)NCC(=O)N[C@@H](Cc1c[nH]c2ccccc12)C(=O)N[C@@H](CCCCN)C(=O)NCC(=O)N[C@@H](CC(=O)O)C(=O)N[C@@H](CC(N)=O)C(=O)N[C@@H](CCCCN)C(=O)O` (H-RISGWKGDNK-OH), `CC[C@H](C)[C@H](NC(=O)[C@H](CO)NC(=O)[C@H](Cc1ccccc1)NC(=O)[C@@H](NC(=O)[C@H](CO)NC(=O)CNC(=O)[C@H](CO)NC(=O)[C@H](CO)NC(=O)[C@@H](N)CCCNC(=N)N)[C@@H](C)O)C(=O)N[C@@H](CCCCN)C(=O)O` (H-RSSGSTFSIK-OH) is 1.7-fold lower in IC50: 0.548 µM for the first, 0.326 µM for the second. The second is the more potent here.

What follows are compounds tested against HLA A*0201 (Homo sapiens, UniProt P04439, D140Y/D185E/D98H/E176V/E277Q/G131W/G231S/I119V/I121R/I166T/I218V/L300P/L318F/N151K/N90K/P208A/P217A/Q86G/Q94H/R138H/R169H/T345S) in the same assay as above.

Going from `CC(C)C[C@H](NC(=O)[C@H](CC(C)C)NC(=O)[C@H](CC(N)=O)NC(=O)[C@H](CC(C)C)NC(=O)[C@H](CC(C)C)NC(=O)[C@@H](N)Cc1ccccc1)C(=O)N[C@@H](CC(N)=O)C(=O)N[C@@H](CCC(=O)O)C(=O)N[C@@H](Cc1c[nH]cn1)C(=O)N[C@H](C(=O)O)C(C)C` (H-FLLNLLNEHV-OH) to `CC[C@H](C)[C@H](NC(=O)[C@H](CC(=O)O)NC(=O)[C@H](CC(N)=O)NC(=O)[C@H](CC(N)=O)NC(=O)[C@H](CC(C)C)NC(=O)[C@@H](N)Cc1c[nH]c2ccccc12)C(=O)N[C@@H](Cc1ccc(O)cc1)C(=O)N[C@@H](CC(N)=O)C(=O)N[C@H](C(=O)O)C(C)C` (H-WLNNDIYNV-OH), the IC50 falls from 1.68 µM to 0.16 µM (10-fold). The second is the more potent here.

Compared with `CC[C@H](C)[C@H](NC(=O)CN)C(=O)N[C@@H](C)C(=O)N[C@@H](CC(N)=O)C(=O)N[C@@H](CC(=O)O)C(=O)N[C@@H](CC(C)C)C(=O)N[C@@H](CO)C(=O)N[C@H](C(=O)N[C@@H](CC(C)C)C(=O)O)[C@@H](C)O` (H-GIANDLSTL-OH), `CC[C@H](C)[C@H](NC(=O)[C@H](CC(=O)O)NC(=O)[C@@H](NC(=O)[C@H](CO)NC(=O)[C@@H](NC(=O)[C@@H](N)CC(C)C)[C@@H](C)CC)[C@@H](C)O)C(=O)N[C@H](C(=O)N[C@@H](Cc1ccccc1)C(=O)N[C@@H](CC(C)C)C(=O)O)[C@@H](C)CC` (H-LISTDIIFL-OH) is 9.3-fold lower in IC50: 5.73 µM for the first, 0.614 µM for the second. The second is the more potent here.

Compared with `CC[C@H](C)[C@H](N)C(=O)N[C@@H](CC(C)C)C(=O)N[C@@H](Cc1ccc(O)cc1)C(=O)N[C@@H](CCCCN)C(=O)N[C@@H](CC(N)=O)C(=O)N[C@H](C(=O)N[C@@H](CC(=O)O)C(=O)N[C@@H](CS)C(=O)N[C@H](C(=O)O)C(C)C)[C@@H](C)CC` (H-ILYKNIDCV-OH), `CC[C@H](C)[C@H](NC(=O)[C@@H](N)CO)C(=O)N[C@@H](CO)C(=O)N[C@@H](CC(=O)O)C(=O)N[C@@H](Cc1ccc(O)cc1)C(=O)N[C@H](C(=O)N[C@@H](CCCCN)C(=O)N[C@@H](CO)C(=O)N[C@@H](CC(C)C)C(=O)O)[C@@H](C)O` (H-SISDYTKSL-OH) is 250-fold higher in IC50: 1.4 µM for the first, 352 µM for the second.

Going from `CC(C)C[C@H](NC(=O)[C@H](CC(=O)O)NC(=O)[C@H](CC(C)C)NC(=O)[C@H](CO)NC(=O)[C@@H]1CCCN1C(=O)[C@H](CCCCN)NC(=O)[C@H](CC(N)=O)NC(=O)[C@H](CC(C)C)NC(=O)[C@H](CC(C)C)NC(=O)[C@@H](N)CCCCN)C(=O)O` (H-KLLNKPSLDL-OH) to `CC(C)C[C@H](NC(=O)[C@H](CC(N)=O)NC(=O)[C@H](C)NC(=O)[C@H](C)NC(=O)[C@H](CCCCN)NC(=O)[C@H](CCC(N)=O)NC(=O)[C@H](Cc1ccccc1)NC(=O)[C@H](CC(C)C)NC(=O)[C@@H](N)CC(C)C)C(=O)O` (H-LLFQKAANL-OH), the IC50 falls from 4.26 µM to 1.88 µM (2.3-fold). The second is the more potent here.

Going from `CC(C)C[C@H](NC(=O)[C@@H](N)CC(N)=O)C(=O)N[C@@H](Cc1ccccc1)C(=O)N[C@@H](CCC(=O)O)C(=O)N[C@@H](Cc1c[nH]c2ccccc12)C(=O)N[C@@H](CO)C(=O)N[C@@H](CCCCN)C(=O)N[C@H](C(=O)N[C@H](C(=O)O)C(C)C)[C@@H](C)O` (H-NLFEWSKTV-OH) to `CC[C@H](C)[C@H](NC(=O)[C@H](CO)NC(=O)[C@H](CCCCN)NC(=O)[C@H](CC(N)=O)NC(=O)[C@H](CCC(N)=O)NC(=O)[C@H](Cc1ccccc1)NC(=O)[C@H](Cc1ccccc1)NC(=O)[C@H](CC(C)C)NC(=O)[C@@H](N)CC(N)=O)C(=O)O` (H-NLFFQNKSI-OH; N-terminus assumed), the IC50 rises from 1.62 µM to over 1000 µM. The first is the more potent here.

Going from `CC[C@H](C)[C@H](NC(=O)[C@H](CC(N)=O)NC(=O)[C@H](CCC(N)=O)NC(=O)[C@H](CCC(N)=O)NC(=O)[C@H](Cc1ccc(O)cc1)NC(=O)[C@H](CCSC)NC(=O)[C@@H](N)CC(N)=O)C(=O)N1CCC[C@H]1C(=O)N[C@@H](CC(C)C)C(=O)O` (H-NMYQQNIPL-OH) to `CC[C@H](C)[C@H](NC(=O)[C@H](CC(N)=O)NC(=O)[C@@H](NC(=O)[C@H](CCSC)NC(=O)[C@@H](N)CO)[C@@H](C)O)C(=O)N1CCC[C@H]1C(=O)N[C@@H](CCSC)C(=O)N[C@@H](CC(N)=O)C(=O)N[C@H](C(=O)O)C(C)C` (H-SMTNIPMNV-OH), the IC50 falls from 331 µM to 0.244 µM (1400-fold).

First: CC[C@H](C)[C@H](NC(=O)CNC(=O)[C@H](Cc1ccc(O)cc1)NC(=O)[C@H](Cc1c[nH]cn1)NC(=O)[C@@H](NC(=O)[C@@H](N)C(C)C)[C@@H](C)CC)C(=O)N[C@@H](CC(N)=O)C(=O)N1CCC[C@H]1C(=O)N[C@H](C(=O)O)C(C)C (H-VIHYGINPV-OH)
Second: CC[C@H](C)[C@H](NC(=O)[C@@H](NC(=O)[C@@H](NC(=O)[C@H](CCCCN)NC(=O)[C@H](CC(N)=O)NC(=O)[C@H](CCCCN)NC(=O)[C@H](CC(N)=O)NC(=O)[C@@H](NC(=O)[C@@H](NC(=O)[C@@H](N)Cc1ccc(O)cc1)[C@@H](C)CC)[C@@H](C)O)C(C)C)[C@@H](C)O)C(=O)O (H-YITNKNKVTI-OH; N-terminus assumed)
The IC50 of the first is lower: 1.7 µM for the first, over 1000 µM for the second. The first is the more potent here.
